From patent US20260176300A1, “N-ARYLPYRAZOLE NOD2 AGONISTS AS PROMOTERS OF IMMUNE CHECKPOINT INHIBITOR THERAPY” (THE SCRIPPS RESEARCH INSTITUTE, priority 2022, published 2026)

target: T1, NOD2 (Homo sapiens, UniProt Q9HC29); test: NOD2-HEK-Blue NF-κB reporter cell activation assay (NOD2-expressing HEK-293T cells); assay type: cell-based; conditions: TT018 vs. TT019, TT010 vs. TT020, TT011 vs. TT021; FIG. 2C
T1 construct: host or cells: HEK-293T-derived HEK-Blue NF-kB/SEAP reporter cells
From the text: FIG. 1(A-F). Virtual screening for small molecule NOD2 agonists. A, Docked structure of muramyl dipeptide (MDP) in the leucine-rich repeat (LRR) domain of rabbit NOD2 (pdb 5IRM). […] B, Results of virtual docking approach with reported chemical structures related to MDP. C, Workflow of virtual screening in which a library was generated using carboxylic acids appended to the L-Val-D-Glu dipeptide and then docked to the NOD2 LRR domain. D, Desmuramyl MDP (dMDP) structures resulting from the virtual screen that were synthesized for further screening. Chemicals shown as a pure enantiomer were synthesized as a racemic mixture. E, Activation of NOD2-expressing HEK-293T cells treated for 16 h with 10 µM of the indicated compound using a colorimetric assay. F, Dose-dependent activation of NOD2-expressing HEK-293T cells using the indicated compounds. Numbers in parentheses represent calculated negative log of the half maximal effective concentration (pEC50) values. NOD activation assays were analyzed using a one-way ANOVA with Dunnett's multiple comparisons test compared to the DMSO control. pEC50 values were derived by a three-parameter dose-response nonlinear regression. ****P<0.0001.
FIG. 2(A-G). Structure-activity relationship studies of 3,5-dimethyl-N-arylpyrazole NOD2 agonists. A, Structures of 3,5-dimethyl-N-arylpyrazole structures synthesized for SAR studies. B-F, Dose-dependent activation of NOD2-expressing HEK-293T cells using the indicated compounds grouped by similar structural perturbations. Numbers in parentheses represent calculated pEC50 values. G, Graph of calculated pEC50 values vs. calculated partition coefficient (clogP). Dotted lines show equivalent lipophilic ligand efficiency (LLE) values. Red arrow indicates optimization of the TT007 scaffold to TT030. pEC50 values were derived by a three-parameter dose-response nonlinear regression.
Cell culture. The following cell lines were used and sourced as follows: HEK-Blue NOD2 (InvivoGen, hkb-hnod2), HEK-Blue NOD1 (InvivoGen, hkb-nod1), HEK-Blue Null2 (hkb-null2), and B16-F10 (ATCC CRL-6475). All cell lines were cultured at 37° C. in 5% CO2 in DMEM (ThermoFisher, 11995065) supplemented with 10% fetal bovine serum (FBS), 100 U mL-1 penicillin, and 100 μg mL-1 streptomycin. Cells were maintained at no greater than 70% confluency and subcultured using TrypLE Express. Cell lines were routinely cultured without antibiotics to ensure no bacterial infection and tested for mycoplasma using a Universal Mycoplasma Detection Kit (ATCC 30-1012K). Primary human peripheral mononuclear blood cells (PBMCs) were cultured at 37° C. in 5% CO2 in RPMI 1640 (ThermoFisher, 61870143) supplemented with 10% FBS. All experimental work using human samples was reviewed and approved by the Scripps Research Institutional Review Board (Protocol IRB-21-7816NOD2).
Reporter cell line activation assay. Approximately 24 h before the assay, culture medium for each of the HEK-Blue reporter cell lines was replaced with a 1:1 mixture of DMEM supplemented with 10% FBS and OptiMEM. On the day of the assay, single cell suspensions (150,000 cells/mL) were produced in HEK-Blue detection medium (InvivoGen, hb-det2). Cells were aliquoted at 200 μL per well of a 96-well plate containing 0.2 μL of a 1000× stock of each test compound in DMSO. Cells were then incubated at 37° C. in 5% CO2 for 8-10 h. To measure activity, wells were then gently pipetted up and down to mix the conditioned medium, and absorbance from the colorimetric product of the secreted alkaline phosphatase was measured at 630 nm. In some assays, cells were stimulated for 16 h with compounds as described above in complete DMEM. Then, 20 μL of the conditioned medium was mixed with 180 μL QUANTI-Blue solution (InvivoGen, rep-qbs) and incubated for 2-4 h at 37° C. Activity was then measured by absorbance as described above.

T1 sequence (Q9HC29 whole entry): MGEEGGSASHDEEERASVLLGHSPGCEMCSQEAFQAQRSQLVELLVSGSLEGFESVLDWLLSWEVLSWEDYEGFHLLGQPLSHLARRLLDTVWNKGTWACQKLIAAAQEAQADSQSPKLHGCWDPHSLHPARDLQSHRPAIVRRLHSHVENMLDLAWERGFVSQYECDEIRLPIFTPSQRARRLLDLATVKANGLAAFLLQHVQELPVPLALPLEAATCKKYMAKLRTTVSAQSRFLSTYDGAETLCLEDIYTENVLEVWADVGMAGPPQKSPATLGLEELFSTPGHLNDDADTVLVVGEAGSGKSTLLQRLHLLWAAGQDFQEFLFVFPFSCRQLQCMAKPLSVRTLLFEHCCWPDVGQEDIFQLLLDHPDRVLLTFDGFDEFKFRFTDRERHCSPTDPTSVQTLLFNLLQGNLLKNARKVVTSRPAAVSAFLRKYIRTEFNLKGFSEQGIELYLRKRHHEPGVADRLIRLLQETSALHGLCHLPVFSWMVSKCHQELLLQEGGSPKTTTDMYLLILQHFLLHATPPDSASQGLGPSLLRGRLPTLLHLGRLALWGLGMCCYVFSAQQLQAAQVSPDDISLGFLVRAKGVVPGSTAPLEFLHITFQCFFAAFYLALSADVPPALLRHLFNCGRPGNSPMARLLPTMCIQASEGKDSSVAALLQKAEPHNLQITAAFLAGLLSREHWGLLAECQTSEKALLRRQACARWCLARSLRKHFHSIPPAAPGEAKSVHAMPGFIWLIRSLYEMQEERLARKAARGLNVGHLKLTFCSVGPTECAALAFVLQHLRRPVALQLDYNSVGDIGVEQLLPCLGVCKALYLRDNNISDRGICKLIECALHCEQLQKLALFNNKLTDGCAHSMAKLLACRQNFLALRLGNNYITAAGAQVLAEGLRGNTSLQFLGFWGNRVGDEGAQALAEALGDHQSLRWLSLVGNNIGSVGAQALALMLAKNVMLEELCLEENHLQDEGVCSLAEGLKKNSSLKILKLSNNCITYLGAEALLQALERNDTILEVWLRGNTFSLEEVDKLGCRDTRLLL

Activity after N-methylation on Val	Compound
abolished the activity	CCOC(=O)CC[C@@H](NC(=O)[C@H](C(C)C)N(C)C(=O)c1c(C)nn(-c2ccccc2)c1C)C(=O)OCC [TT019, Diethyl N-(3,5-dimethyl-1-phenyl-1H-pyrazole-4-carbonyl)-N-methyl-L-valyl-D-glutamate]
abolished the activity	CCOC(=O)CC[C@@H](NC(=O)[C@H](C(C)C)N(C)C(=O)c1cnn(-c2ccc(F)cc2)c1C)C(=O)OCC [TT020, Diethyl N-(1-(4-fluorophenyl)-5-methyl-1H-pyrazole-4-carbonyl)-N-methyl-L-valyl-D-glutamate]
abolished the activity	CCOC(=O)CC[C@@H](NC(=O)[C@H](C(C)C)N(C)C(=O)c1cn(-c2ccc(F)cc2)nc1C)C(=O)OCC [TT021, Diethyl N-(1-(4-fluorophenyl)-3-methyl-1H-pyrazole-4-carbonyl)-N-methyl-L-valyl-D-glutamate]

same assay, conditions: calculated, three-parameter dose-response nonlinear regression; read-out: pEC50 (μM), dose-dependent activation of NOD2-expressing HEK-293T cells (converted)

Compound	EC50
CCOC(=O)CC[C@@H](NC(=O)[C@@H](NC(=O)c1cnn(-c2ccncc2)c1C)C(C)C)C(=O)OCC [TT016, Diethyl (5-methyl-1-(pyridin-4-yl)-1H-pyrazole-4-carbonyl)-L-valyl-D-glutamate]	79.4 µM
CCOC(=O)CC[C@@H](NC(=O)[C@@H](NC(=O)c1c(C)nn(-c2ccccc2)c1C)C(C)C)C(=O)OCC [TT018, Diethyl (3,5-dimethyl-1-phenyl-1H-pyrazole-4-carbonyl)-L-valyl-D-glutamate]	2.51 µM
CCOC(=O)CC[C@@H](NC(=O)[C@@H](NC(=O)c1c(C)nn(-c2ccc(Cl)c(Cl)c2)c1C)C(C)C)C(=O)OCC [TT022, Diethyl (1-(3,4-dichlorophenyl)-3,5-dimethyl-1H-pyrazole-4-carbonyl)-L-valyl-D-glutamate]	1.26 µM
CCOC(=O)CC[C@@H](NC(=O)[C@@H](NC(=O)c1c(C)nn(-c2ccc(OC)cc2)c1C)C(C)C)C(=O)OCC [TT023, Diethyl (1-(4-methoxyphenyl)-3,5-dimethyl-1H-pyrazole-4-carbonyl)-L-valyl-D-glutamate]	2 µM
CCOC(=O)CC[C@@H](NC(=O)[C@@H](NC(=O)c1c(C)nn(-c2ccc(Cl)cc2)c1C)C(C)C)C(=O)OCC [TT024, Diethyl (1-(4-chlorophenyl)-3,5-dimethyl-1H-pyrazole-4-carbonyl)-L-valyl-D-glutamate]	1 µM
CCOC(=O)CC[C@@H](NC(=O)[C@@H](NC(=O)c1c(C)nn(-c2ccc3cc[nH]c3c2)c1C)C(C)C)C(=O)OCC [TT025, Diethyl (1-(1H-indol-6-yl)-3,5-dimethyl-1H-pyrazole-4-carbonyl)-L-valyl-D-glutamate]	0.158 µM
CCOC(=O)CC[C@@H](NC(=O)[C@@H](NC(=O)c1c(C)nn(-c2ccc(N)nc2)c1C)C(C)C)C(=O)OCC [TT026, Diethyl (1-(6-aminopyridin-3-yl)-3,5-dimethyl-1H-pyrazole-4-carbonyl)-L-valyl-D-glutamate]	0.501 µM
CCOC(=O)CC[C@@H](NC(=O)[C@@H](NC(=O)c1c(C)nn(-c2ccc(NC(=O)OC(C)(C)C)nc2)c1C)C(C)C)C(=O)OCC [TT027, Diethyl (1-(6-((tert-butoxycarbonyl)amino)pyridin-3-yl)-3,5-dimethyl-1H-pyrazole-4-carbonyl)-L-valyl-D-glutamate]	0.158 µM
CCOC(=O)CC[C@@H](NC(=O)[C@@H](NC(=O)c1c(C)nn(-c2ccc3[nH]ccc3c2)c1C)C(C)C)C(=O)OCC [TT028, Diethyl (1-(1H-indol-5-yl)-3,5-dimethyl-1H-pyrazole-4-carbonyl)-L-valyl-D-glutamate]	0.251 µM
CCOC(=O)CC[C@@H](NC(=O)[C@@H](NC(=O)c1c(C)nn(-c2cnc3[nH]ccc3c2)c1C)C(C)C)C(=O)OCC [TT029, Diethyl (3,5-dimethyl-1-(1H-pyrrolo[2,3-b]pyridin-5-yl)-1H-pyrazole-4-carbonyl)-L-valyl-D-glutamate]	0.398 µM
CCOC(=O)CC[C@@H](NC(=O)[C@@H](NC(=O)c1c(C)nn(-c2ccncc2)c1C)C(C)C)C(=O)OCC [TT031, Diethyl (3,5-dimethyl-1-(pyridin-4-yl)-1H-pyrazole-4-carbonyl)-L-valyl-D-glutamate]	3.16 µM

Continued, values first:

EC50	Compound
1.58 µM	CCOC(=O)CC[C@@H](NC(=O)[C@@H](NC(=O)c1c(C)nn(-c2ccccn2)c1C)C(C)C)C(=O)OCC [TT032, Diethyl (3,5-dimethyl-1-(pyridin-2-yl)-1H-pyrazole-4-carbonyl)-L-valyl-D-glutamate]
2.51 µM	CCOC(=O)CC[C@@H](NC(=O)[C@@H](NC(=O)c1c(C)nn(-c2cccnc2)c1C)C(C)C)C(=O)OCC [TT033, Diethyl (3,5-dimethyl-1-(pyridin-3-yl)-1H-pyrazole-4-carbonyl)-L-valyl-D-glutamate]
2.51 µM	CCOC(=O)CC[C@@H](NC(=O)[C@@H](NC(=O)c1c(C)nn(-c2cncnc2)c1C)C(C)C)C(=O)OCC [TT034, Diethyl (3,5-dimethyl-1-(pyrimidin-5-yl)-1H-pyrazole-4-carbonyl)-L-valyl-D-glutamate]
1.58 µM	CCOC(=O)CC[C@@H](NC(=O)[C@@H](NC(=O)c1c(C)nn(-c2ccccc2OC)c1C)C(C)C)C(=O)OCC [TT035, Diethyl (1-(2-methoxyphenyl)-3,5-dimethyl-1H-pyrazole-4-carbonyl)-L-valyl-D-glutamate]
2.51 µM	CCOC(=O)CC[C@@H](NC(=O)[C@@H](NC(=O)c1c(C)nn(-c2cccc(OC)c2)c1C)C(C)C)C(=O)OCC [TT036, Diethyl (1-(3-methoxyphenyl)-3,5-dimethyl-1H-pyrazole-4-carbonyl)-L-valyl-D-glutamate]
5.01 µM	CCOC(=O)CC[C@@H](NC(=O)[C@@H](NC(=O)c1cnn(-c2cccnc2)c1)C(C)C)C(=O)OCC [TT037, diethyl (1-(pyridin-3-yl)-1H-pyrazole-4-carbonyl)-L-valyl-D-glutamate]
1.58 µM	C#CCCC1(CC(=O)N[C@H](C(=O)N[C@H](CCC(=O)OCC)C(=O)OCC)C(C)C)N=N1 [x-alk-VE]

same assay, conditions: relative to TT007; FIG. 2B, 2D, 2F, 6E

Compound	Potency in structure-activity comparison
CCOC(=O)CC[C@@H](NC(=O)[C@@H](NC(=O)c1c(C)nn(-c2ccccc2)c1C)C(C)C)C(=O)OCC [TT018, Diethyl (3,5-dimethyl-1-phenyl-1H-pyrazole-4-carbonyl)-L-valyl-D-glutamate]	did not yield compounds with appreciable differences in potency
CCOC(=O)CC[C@@H](NC(=O)[C@@H](NC(=O)c1c(C)nn(-c2ccc(Cl)c(Cl)c2)c1C)C(C)C)C(=O)OCC [TT022, Diethyl (1-(3,4-dichlorophenyl)-3,5-dimethyl-1H-pyrazole-4-carbonyl)-L-valyl-D-glutamate]	slight increase
CCOC(=O)CC[C@@H](NC(=O)[C@@H](NC(=O)c1c(C)nn(-c2ccc(OC)cc2)c1C)C(C)C)C(=O)OCC [TT023, Diethyl (1-(4-methoxyphenyl)-3,5-dimethyl-1H-pyrazole-4-carbonyl)-L-valyl-D-glutamate]	did not yield compounds with appreciable differences in potency
CCOC(=O)CC[C@@H](NC(=O)[C@@H](NC(=O)c1c(C)nn(-c2ccc(Cl)cc2)c1C)C(C)C)C(=O)OCC [TT024, Diethyl (1-(4-chlorophenyl)-3,5-dimethyl-1H-pyrazole-4-carbonyl)-L-valyl-D-glutamate]	did not yield compounds with appreciable differences in potency
